Laboratory results: patent US10168342B2, “Lipid probes and uses thereof” (THE SCRIPPS RESEARCH INSTITUTE, priority 2015, dated 2019)

Tests used:
Test in all cases: isoTOP-ABPP mapping of AEA-DA-modified peptides in Neuro2a cells
Format in all cases: cell-based
[1] = biological target: T1, AEA-DA-modified peptides in Neuro2a cells (Mus musculus, UniProt P15626); details: AEA-DA-modified peptide GSTM2 P15626 109-123, SEQ ID NO 45; probe 100 μM, 12 replicates
T1 construct: endogenous in cells; host or cells: Neuro2a
T1 sequence (P15626 whole entry): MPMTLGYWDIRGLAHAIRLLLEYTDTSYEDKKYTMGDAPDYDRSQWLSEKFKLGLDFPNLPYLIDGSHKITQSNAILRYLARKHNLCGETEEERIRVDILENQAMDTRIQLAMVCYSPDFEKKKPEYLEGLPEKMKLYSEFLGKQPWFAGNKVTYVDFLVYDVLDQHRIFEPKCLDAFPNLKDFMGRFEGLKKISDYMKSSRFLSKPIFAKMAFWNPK

[2] = biological target: T2, AEA-DA-modified peptides in Neuro2a cells (Mus musculus, UniProt P18242); details: AEA-DA-modified peptide CTSD P18242 312-330, SEQ ID NO 27; probe 100 μM, 12 replicates
T2 construct: endogenous in cells; host or cells: Neuro2a
T2 sequence (P18242 65-410): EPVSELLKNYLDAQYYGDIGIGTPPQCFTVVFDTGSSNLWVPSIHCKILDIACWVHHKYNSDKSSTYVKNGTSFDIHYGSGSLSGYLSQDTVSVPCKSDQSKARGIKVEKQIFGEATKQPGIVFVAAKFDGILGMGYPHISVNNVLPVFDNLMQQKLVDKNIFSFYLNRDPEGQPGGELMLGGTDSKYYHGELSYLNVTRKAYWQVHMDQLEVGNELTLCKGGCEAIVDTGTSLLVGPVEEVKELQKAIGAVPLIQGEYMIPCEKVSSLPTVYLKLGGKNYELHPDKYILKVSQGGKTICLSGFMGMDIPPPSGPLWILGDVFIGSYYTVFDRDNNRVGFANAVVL

[3] = biological target: T3, AEA-DA-modified peptides in Neuro2a cells (Mus musculus, UniProt P57776); details: AEA-DA-modified peptide EEF1D P57776 25-39, SEQ ID NO 35; probe 100 μM, 12 replicates
T3 construct: endogenous in cells; host or cells: Neuro2a
T3 sequence (P57776 whole entry): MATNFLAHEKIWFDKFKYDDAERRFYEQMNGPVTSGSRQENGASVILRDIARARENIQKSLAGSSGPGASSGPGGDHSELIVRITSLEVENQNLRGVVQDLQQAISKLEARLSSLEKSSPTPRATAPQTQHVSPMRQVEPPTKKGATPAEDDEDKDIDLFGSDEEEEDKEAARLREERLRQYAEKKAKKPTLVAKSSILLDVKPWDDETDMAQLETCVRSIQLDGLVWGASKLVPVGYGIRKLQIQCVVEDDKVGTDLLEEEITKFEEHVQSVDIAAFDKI

[4] = biological target: T4, AEA-DA-modified peptides in Neuro2a cells (Mus musculus, UniProt P70699); details: AEA-DA-modified peptide GAA P70699 904-935, SEQ ID NO 41; probe 100 μM, 12 replicates
T4 construct: endogenous in cells; host or cells: Neuro2a
T4 sequence (P70699 70-953): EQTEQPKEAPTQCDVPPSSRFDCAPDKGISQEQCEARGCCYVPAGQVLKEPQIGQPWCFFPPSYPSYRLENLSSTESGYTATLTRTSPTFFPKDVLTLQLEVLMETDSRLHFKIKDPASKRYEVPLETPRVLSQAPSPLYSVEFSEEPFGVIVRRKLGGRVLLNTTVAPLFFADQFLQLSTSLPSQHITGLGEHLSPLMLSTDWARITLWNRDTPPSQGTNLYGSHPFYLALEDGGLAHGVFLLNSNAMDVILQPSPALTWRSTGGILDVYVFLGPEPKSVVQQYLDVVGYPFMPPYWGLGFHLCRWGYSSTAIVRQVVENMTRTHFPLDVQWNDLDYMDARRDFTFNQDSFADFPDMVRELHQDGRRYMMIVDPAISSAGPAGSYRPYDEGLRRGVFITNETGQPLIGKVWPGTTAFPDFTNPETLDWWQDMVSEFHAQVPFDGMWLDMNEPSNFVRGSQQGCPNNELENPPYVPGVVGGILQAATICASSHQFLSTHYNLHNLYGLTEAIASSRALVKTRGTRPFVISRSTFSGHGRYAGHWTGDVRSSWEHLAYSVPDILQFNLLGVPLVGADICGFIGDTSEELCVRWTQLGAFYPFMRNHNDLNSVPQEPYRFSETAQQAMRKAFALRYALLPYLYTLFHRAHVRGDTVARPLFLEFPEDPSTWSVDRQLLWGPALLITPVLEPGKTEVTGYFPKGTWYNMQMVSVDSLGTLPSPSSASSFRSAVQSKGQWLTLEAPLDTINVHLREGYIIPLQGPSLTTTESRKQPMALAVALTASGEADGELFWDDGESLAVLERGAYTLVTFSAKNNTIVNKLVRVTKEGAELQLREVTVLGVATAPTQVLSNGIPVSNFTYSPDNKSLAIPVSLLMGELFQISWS

[5] = biological target: T5, AEA-DA-modified peptides in Neuro2a cells (Mus musculus, UniProt Q61335); details: AEA-DA-modified peptide BCAP31 Q61335 73-80, SEQ ID NO 21; probe 100 μM, 12 replicates
T5 construct: endogenous in cells; host or cells: Neuro2a
T5 sequence (Q61335 whole entry): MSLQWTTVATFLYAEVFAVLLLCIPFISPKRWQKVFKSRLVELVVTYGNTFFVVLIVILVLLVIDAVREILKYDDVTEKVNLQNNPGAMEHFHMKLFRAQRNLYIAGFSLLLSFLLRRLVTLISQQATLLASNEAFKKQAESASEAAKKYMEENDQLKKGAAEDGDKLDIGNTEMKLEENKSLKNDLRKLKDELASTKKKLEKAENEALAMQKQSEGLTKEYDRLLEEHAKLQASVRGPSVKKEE

[6] = biological target: T6, AEA-DA-modified peptides in Neuro2a cells (Mus musculus, UniProt Q6PIC6); details: AEA-DA-modified peptide ATP1A3 Q6PIC6 350-376, SEQ ID NO 18; probe 100 μM, 12 replicates
T6 construct: endogenous in cells; host or cells: Neuro2a

[7] = biological target: T7, AEA-DA-modified peptides in Neuro2a cells (Mus musculus, UniProt Q78ZA7); details: AEA-DA-modified peptide NAP1L4 Q78ZA7 84-94, SEQ ID NO 66; probe 100 μM, 12 replicates
T7 construct: endogenous in cells; host or cells: Neuro2a
T7 sequence (Q78ZA7 whole entry): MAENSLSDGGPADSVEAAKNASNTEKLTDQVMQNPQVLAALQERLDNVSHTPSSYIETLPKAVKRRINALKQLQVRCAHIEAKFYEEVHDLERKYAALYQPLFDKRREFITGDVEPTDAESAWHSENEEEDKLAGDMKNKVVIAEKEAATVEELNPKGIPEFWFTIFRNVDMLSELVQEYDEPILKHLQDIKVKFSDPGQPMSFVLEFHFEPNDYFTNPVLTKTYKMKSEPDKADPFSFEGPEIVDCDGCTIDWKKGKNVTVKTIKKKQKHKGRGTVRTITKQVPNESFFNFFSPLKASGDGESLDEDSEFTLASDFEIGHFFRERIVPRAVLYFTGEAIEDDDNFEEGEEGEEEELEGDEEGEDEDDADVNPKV

[8] = biological target: T8, AEA-DA-modified peptides in Neuro2a cells (Mus musculus, UniProt Q80UU9); details: probe 100 μM, 12 replicates
T8 construct: endogenous in cells; host or cells: Neuro2a
T8 sequence (Q80UU9 whole entry): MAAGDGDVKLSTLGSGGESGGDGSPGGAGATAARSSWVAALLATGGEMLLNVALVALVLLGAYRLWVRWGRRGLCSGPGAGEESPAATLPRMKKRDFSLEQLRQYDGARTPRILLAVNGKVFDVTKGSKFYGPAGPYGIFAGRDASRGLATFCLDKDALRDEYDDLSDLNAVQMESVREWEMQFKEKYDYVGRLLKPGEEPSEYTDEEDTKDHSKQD

[9] = biological target: T9, AEA-DA-modified peptides in Neuro2a cells (Mus musculus, UniProt Q8BH04); details: AEA-DA-modified peptide PCK2 Q8BH04 245-262, SEQ ID NO 79; probe 100 μM, 12 replicates
T9 construct: endogenous in cells; host or cells: Neuro2a
T9 sequence (Q8BH04 33-640): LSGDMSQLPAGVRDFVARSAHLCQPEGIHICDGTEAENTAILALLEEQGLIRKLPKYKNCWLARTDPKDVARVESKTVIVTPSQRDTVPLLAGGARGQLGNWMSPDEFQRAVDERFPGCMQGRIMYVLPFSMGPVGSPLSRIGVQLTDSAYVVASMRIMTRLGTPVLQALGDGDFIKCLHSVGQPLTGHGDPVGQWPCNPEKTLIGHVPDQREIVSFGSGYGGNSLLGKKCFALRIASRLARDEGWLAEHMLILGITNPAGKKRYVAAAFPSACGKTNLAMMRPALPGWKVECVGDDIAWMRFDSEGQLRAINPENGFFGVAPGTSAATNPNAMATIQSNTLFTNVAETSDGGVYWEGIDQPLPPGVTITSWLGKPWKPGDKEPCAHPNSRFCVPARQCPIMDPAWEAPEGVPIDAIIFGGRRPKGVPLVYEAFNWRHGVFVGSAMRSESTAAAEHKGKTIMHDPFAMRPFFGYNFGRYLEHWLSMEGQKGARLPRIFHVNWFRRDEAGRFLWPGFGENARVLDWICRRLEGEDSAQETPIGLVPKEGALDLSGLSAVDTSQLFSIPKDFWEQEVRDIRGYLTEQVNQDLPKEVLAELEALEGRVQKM

[10] = biological target: T10, AEA-DA-modified peptides in Neuro2a cells (Mus musculus, UniProt Q8BWM0); details: AEA-DA-modified peptide PTGES2 Q8BWM0 269-279, SEQ ID NO 92; probe 100 μM, 12 replicates
T10 construct: endogenous in cells; host or cells: Neuro2a
T10 sequence (Q8BWM0 whole entry): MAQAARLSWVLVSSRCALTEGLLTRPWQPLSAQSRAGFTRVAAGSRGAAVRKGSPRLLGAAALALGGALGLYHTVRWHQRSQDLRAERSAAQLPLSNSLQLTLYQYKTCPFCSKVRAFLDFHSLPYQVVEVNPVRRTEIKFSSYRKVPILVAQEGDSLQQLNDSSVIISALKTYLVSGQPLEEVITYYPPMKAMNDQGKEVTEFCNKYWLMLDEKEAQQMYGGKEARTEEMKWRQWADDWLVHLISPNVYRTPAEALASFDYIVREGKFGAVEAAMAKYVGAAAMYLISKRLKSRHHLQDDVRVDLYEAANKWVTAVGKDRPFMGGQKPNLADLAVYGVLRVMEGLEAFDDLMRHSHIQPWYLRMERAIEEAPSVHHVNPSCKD

[11] = biological target: T11, AEA-DA-modified peptides in Neuro2a cells (Mus musculus, UniProt Q8CIV2); details: AEA-DA-modified peptide ORF61 Q8CIV2 245-263, SEQ ID NO 75; probe 100 μM, 12 replicates
T11 construct: endogenous in cells; host or cells: Neuro2a
T11 sequence (Q8CIV2 whole entry): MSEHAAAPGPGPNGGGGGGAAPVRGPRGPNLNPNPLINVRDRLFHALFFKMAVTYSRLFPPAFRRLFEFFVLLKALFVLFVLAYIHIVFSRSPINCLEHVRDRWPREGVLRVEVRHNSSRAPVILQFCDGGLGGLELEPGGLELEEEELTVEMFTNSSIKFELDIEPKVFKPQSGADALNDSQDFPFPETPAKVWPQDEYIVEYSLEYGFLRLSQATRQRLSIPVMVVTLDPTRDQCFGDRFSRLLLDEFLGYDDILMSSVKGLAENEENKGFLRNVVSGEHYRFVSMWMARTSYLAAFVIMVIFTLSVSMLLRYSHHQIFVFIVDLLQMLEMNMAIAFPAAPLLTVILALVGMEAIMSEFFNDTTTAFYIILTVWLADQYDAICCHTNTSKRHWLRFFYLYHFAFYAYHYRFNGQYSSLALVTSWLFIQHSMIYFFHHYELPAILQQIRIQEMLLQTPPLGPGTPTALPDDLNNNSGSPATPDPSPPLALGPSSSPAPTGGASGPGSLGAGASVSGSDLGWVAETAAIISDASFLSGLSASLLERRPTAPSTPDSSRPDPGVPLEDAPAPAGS

[12] = biological target: T12, AEA-DA-modified peptides in Neuro2a cells (Mus musculus, UniProt Q9JKW0); details: AEA-DA-modified peptide ARL6IP1 Q9JKW0 8-36, SEQ ID NO 15; probe 100 μM, 12 replicates
T12 construct: endogenous in cells; host or cells: Neuro2a
T12 sequence (Q9JKW0 whole entry): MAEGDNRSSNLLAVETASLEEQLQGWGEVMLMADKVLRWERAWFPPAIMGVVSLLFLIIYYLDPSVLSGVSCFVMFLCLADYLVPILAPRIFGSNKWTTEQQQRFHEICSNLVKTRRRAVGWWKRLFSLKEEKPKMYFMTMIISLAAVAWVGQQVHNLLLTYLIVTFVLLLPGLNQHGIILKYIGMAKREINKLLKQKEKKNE

C#CCCCC1(CC/C=C\C/C=C\C/C=C\CCCC(=O)NCCO)N=N1 [AEA-DA, (5Z,8Z,11Z)-N-(2-hydroxyethyl)-14-(3-(pent-4-yn-1-yl)-3H-diazirin-3-yl)tetradeca-5,8,11-trienamide]
Times observed [1]: 5
Times observed [2]: 12
Times observed [3]: 10
Times observed [4]: 11
Times observed [5]: 2
Times observed [6]: 2
Times observed [7]: 3
Times observed ([8]; AEA-DA-modified peptide PGRMC2 Q80UU9 74-92, SEQ ID NO 84): 2
Times observed ([8]; AEA-DA-modified peptide PGRMC2 Q80UU9 130-144, SEQ ID NO 83): 9
Times observed [9]: 12
Times observed [10]: 3
Times observed [11]: 4
Times observed [12]: 2
